# Measurements from publication PMC3842668, “Dual-acting stapled peptides target both HIV-1 entry and assembly” (Retrovirology, 2013).
# Where a SMILES comes first, the peptide text is derived from it. Bridges are numbered along the chain shown (N, C = ends). Where no end group is shown, it is not given here. [ ]: non-standard residue; d: D form. R8 = C=CCCCCCC[C@@](C)(N)C(=O)O; S5 = C=CCCC[C@](C)(N)C(=O)O
# Assays:
# [1] = target: tip of V3 loop (15-mer V3 tip peptide); assay: ITC binding to 15-mer V3 tip peptide; design: species or system HIV-1; settings: 90 μM 15-mer V3 tip peptide titrated into 4.5 μM peptide, single-site model
# Protocol: (§1) We also used ITC to measure the binding affinity of the stapled peptides to full-length cyclic V3 loop peptide.
# (§2) Full-length V3 peptide (Cat# 1840), cyclic V3 peptide (Cat# 1837) and 15-mer overlapping V3 peptides (Cat# 1832, 6282, 6283, 6284, 6285, 6287, 6288, 6289, 6290 and 6291, for amino acid sequence see HIV-1 Subtype B (MN) Env Peptides - Complete Set Cat# 6451) were obtained through the NIH ARP.
# (§3) For forward titration, 90 μM full-length V3 peptide, full-length cyclic V3 peptide or 90 μM 15-mer V3 peptides were titrated into 4.5 μM of stapled or linear peptides. Reference measurements were performed by titrating 90 μM full-length V3 peptide, full-length cyclic V3 peptide or 15-mer V3 peptide into buffer without peptide. For reverse titration, 90 μM stapled peptide was titrated into 4.5 μM full-length V3 peptide, full-length cyclic V3 peptide or […]. Reference measurements were performed by titrating 90 μM stapled peptide into buffer without peptide.
# WT NL4-3 [2] = assay: Virus replication in PBMC, WT; assay type: cell-based, HIV-1; settings: PBMC from three donors, 30 μM peptide, RT activity
# [3] = test system: HIV-1 V120Q/A327P Env mutant; assay type: cell-based
# [4] = test system: N-terminal and C-terminal V3 loop peptides; assay: ITC binding to N-terminal and C-terminal V3 loop peptides; design: species or system HIV-1; settings: overlapping 15-mer V3 peptides
# Protocol: as §1, §2, §3
# HIV-1 pNL4-3 = assay: Virus assembly and release assay, Gag processing; assay type: cell-based; settings: 293T cells transfected with pNL4-3, peptide for 16–20 h, ratio of Pr55Gag to p24
# Protocol: This inhibition was specific to HIV-1 as the release of another lentivirus, equine infectious anemia virus (EIAV), was not inhibited. In this study we investigated whether i,i + 7 stapled CAI-derived peptides have any effect on virus release. 293T cells were transfected with the full-length HIV-1 molecular clone pNL4-3, treated with stapled peptides for 16–20 h, and metabolically labeled with [^35S]Met/Cys. The cell- and virus-associated proteins were immunoprecipitated with HIV-Ig.
# Figure 6 i + 7 stapled peptides have no effect on HIV-1 release, but impair Gag processing. […] Cells were metabolically labeled with [^35S]Met/Cys for 2 h. Cells were lysed and virions were collected by ultracentrifugation. Cell and virus lysates were immunoprecipitated with HIV-Ig and subjected to SDS-PAGE. Protein band intensities were quantified by phosphorimager analysis, and HIV-1 release was calculated as the amount of virion-associated p24 relative to total (cell- plus virion-associated) Gag. (b) Accumulation of unprocessed Gag in cells was measured by calculating the ratio of Pr55^Gag to p24 in cells. P values were calculated by Student’s t-test, with P < 0.05 considered significant. N = 3, ± SD.
# 293T cells, plated at 3 × 10^5 cells/well in 12 well plates, were transfected with the HIV-1 molecular clone pNL4-3 [69]. […] One day posttransfection, cells were metabolically labeled with [^35S]Met/Cys for 2 h. The labeled virions were pelleted in an ultracentrifuge, and the virus and cell lysates were immunoprecipitated with pooled sera from HIV-1-infected patients (HIV-Ig, obtained from the ARP) and subjected to SDS-PAGE. Protein band intensities were quantified by phosphorimager analysis, and virus release was calculated as the amount of virion-associated Gag as a fraction of total (cell- plus virion-associated) Gag synthesized during the metabolic labeling period. Accumulation of Pr55^Gag in cells was measured by calculating the ratio of Pr55^Gag to p24 (CA).
# WT NL4-3 [5] = assay: Spreading virus replication in Jurkat T-cell line, RT activity, WT; assay type: cell-based, HIV-1
# WT HIV-1 (NL4-3) = assay type: cell-based
# HIV-1 pNL4-3 (WT) = assay type: cell-based
# HIV-1 CA [6] = target: T1, HIV-1 CA (Human immunodeficiency virus type 1 group M subtype B, UniProt P12493); assay: Turbidity-based in vitro CA assembly assay; assay type: biochemical; settings: turbidity at 350 nm
# T1 construct: Wild-type HIV-1 CA was overexpressed and purified as previously described; made in house
# Protocol: The ability of stapled peptides to disrupt CA-CA interactions was also assessed using a turbidity-based in vitro CA assembly assay. This assay is based on the observation that the turbidity of a CA-containing solution increases in proportion to the extent of assembly.
# Wild-type HIV-1 CA was overexpressed and purified as previously described. […] Turbidity assays were carried out in triplicate using a Beckman spectrophotometer at a wavelength of 350 nm to monitor HIV-1 in vitro assembly conducted at ambient temperatures. Protein samples were prepared in an assembly buffer [50 mM NaPO4 pH 8.0]. In vitro assembly reactions were prepared with 250 μl of assembly buffer containing 60 μM protein. To catalyze CA assembly 250 μl of an assembly buffer containing 5M NaCl was added. The solution was mixed by agitation and transferred a cuvette for a total delay of 20 seconds. Assembly was monitored every 10 sec for the first min and every min thereafter for a total 10 min. Assembly reactions with stapled peptides were incubated in the assembly buffer for 10 min and then centrifuged for 1 min to separate any insoluble fractions before catalyzing assembly.
# V120Q/A327P mutant = assay: Virus replication in PBMC, Env mutant; assay type: cell-based, HIV-1; settings: PBMC from three donors, 30 μM peptide, RT activity
# HIV-1 CA [7] = target: T1, HIV-1 CA; assay: In vitro CA assembly, negative-stain electron microscopy; assay type: biochemical; settings: 50 μΜ CA, 0.25- to 3.0-fold molar equivalent of peptide
# Protocol: Briefly, stock proteins were adjusted to the appropriate concentration (25 μΜ for Gag protein or 50 μΜ for CA protein) with the Na2HPO4 buffer at pH 8.0. […] Negative staining was used to check the assembly. Carbon-coated copper grids (200 mesh size; EM Sciences) were treated with 20 μl of poly-L-lysine (1 mg/ml; Sigma) for 2 min. 20 μl of reaction solution was placed onto the grid for 2 min. Spotted grids were then stained with 30 μl of uranyl acetate solution for 2 min. Excess stain was removed, and grids were air-dried. Specimens were examined with a TECNAI G^2 electron microscope (FEI, OR, USA).
# [8] = not told; cited from earlier work
# Excerpt: In 2005, a 12-mer peptide (CAI), identified by phage-display, was reported to disrupt both immature- and mature-like particles in vitro by targeting the C-terminal domain (CTD) of HIV-1 CA [21]. […] Subsequently, we converted CAI to a cell-penetrating peptide (NYAD-1) by using a hydrocarbon stapling technique and confirmed its binding to the CTD [24]. NYAD-1, which is an i,i + 4 staple peptide, disrupts the formation of both immature- and mature-like particles in cell-free and cell-based assembly s ... || We previously reported that an i,i + 4 stapled peptide, NYAD-1, penetrates cells and disrupts virus assembly in both in vitro and cell-based assays. […] In addition, direct binding analyses by ITC and NMR confirmed that NYAD-1 binds to the CTD of CA. These findings motivated us to expand the scope of our drug discovery effort on hydrocarbon-stapled peptides as assembly and maturation inhibitors to an i,i + 7 series of stapled peptides. This approach allowed us to explore res ...
Molecule,Kd [1] [µM],virus replication (in words) (WT NL4-3 [2]),Cell penetration (in words) (293T cells),"fold reduction of virus infectivity, V120Q/A327P double mutant [3]",binding to N-terminal and C-terminal V3 loop peptides (in words) [4],Accumulation of cell-associated Pr55Gag (in words) (HIV-1 pNL4-3),"virus replication (in words) (WT NL4-3 [5]; Jurkat cells transfected with pNL4-3 (WT), 37.5 μM peptide)","virus replication (in words) (WT NL4-3 [5]; Jurkat cells transfected with pNL4-3, 25 μM peptide)","virus replication (in words) (WT NL4-3 [5]; Jurkat cells transfected with pNL4-3, 50 μM peptide)","fold reduction of virus infectivity, WT (WT HIV-1 (NL4-3)) [fold]",reduction in infectivity of virions produced from treated cells (HIV-1 pNL4-3 (WT)),"Effect on CA assembly, turbidity (in words) (HIV-1 CA [6]; 50 mM NaPO4 pH 8.0)","initial rate of CA assembly (HIV-1 CA [6]; compound:CA ratio 2:1, mean ± standard deviation from three experiments, DMSO control 216 ± 6.23) [mOD/min]",virus replication (in words) (V120Q/A327P mutant),CC 50 (μM ± SD) in MT-2 (MT-2 cells) [µM],"Effect on CA tube assembly, EM (in words) (HIV-1 CA [7])",cell permeability (in words) [8]
CC[C@H](C)[C@H](NC(C)=O)C(=O)N[C@@H](CO)C(=O)N[C@@H](Cc1ccccc1)C(=O)N[C@]1(C)CCCCCCC=CCCC[C@@](C)(C(=O)N[C@@H](CCC(=O)O)C(=O)N[C@@H](CO)C(=O)NCC(=O)N[C@@H](CO)C(N)=O)NC(=O)[C@H](Cc2ccc(O)cc2)NC(=O)[C@H](Cc2ccc(O)cc2)NC(=O)[C@H](CC(=O)O)NC(=O)[C@H](CC(C)C)NC(=O)[C@H](CC(C)C)NC(=O)[C@H](CCC(=O)O)NC1=O [NYAD-36] (Ac-ISF[R8]ELLDYY[S5]ESGS-NH2; staple 4-11),15.1 ± 3.78,strongly inhibited replication of WT NL4-3 in PBMC,penetrate cells less efficiently than NYAD-1,~ 2.5 fold,neither N-terminal nor C-terminal V3 loop peptides bind,modest accumulation of cell-associated Pr55^Gag,significantly delayed,virus replication peaked approximately six days posttransfection,no replication was detected,> 10,four-fold,reduced the extent of CA assembly in a dose-dependent manner,158 ± 24.71,showed some antiviral activity against the V120Q/A327P mutant,>189.4,either severely damaged or disintegrated,–
"ITFEDLLDYYGP-NH2 [CAI, reference compound]",–,–,–,–,–,–,–,–,–,–,–,–,–,–,>100,–,lack of cell permeability
